# Test results taken from the NIST ThermoML archive (doi:10.1016/j.jct.2013.02.001).
# Numbers after ± are expanded uncertainties.
# Details: Quantum Design PPMS relaxation calorimeter; for molar entropy: 101.33 kPa
smiles,measurement,setting,value
O=P([O-])([O-])OP(=O)([O-])[O-].[Fe+2].[Fe+2] [iron(II) pyrophosphate],molar entropy,"1 K, Crystal 2",0.08421 ± 0.013 J/K/mol
same,molar entropy,"2 K, Crystal 2",0.1749 ± 0.027 J/K/mol
same,molar entropy,"3 K, Crystal 2",0.2781 ± 0.043 J/K/mol
same,molar entropy,"4 K, Crystal 2",0.4026 ± 0.062 J/K/mol
same,molar entropy,"5 K, Crystal 2",0.5598 ± 0.086 J/K/mol
same,molar entropy,"6 K, Crystal 2",0.7639 ± 0.12 J/K/mol
same,molar entropy,"7 K, Crystal 2",1.033 ± 0.16 J/K/mol
same,molar entropy,"8 K, Crystal 2",1.379 ± 0.21 J/K/mol
same,molar entropy,"9 K, Crystal 2",1.814 ± 0.28 J/K/mol
same,molar entropy,"10 K, Crystal 2",2.349 ± 0.085 J/K/mol
same,molar entropy,"11 K, Crystal 2",2.988 ± 0.11 J/K/mol
same,molar entropy,"12 K, Crystal 2",3.726 ± 0.14 J/K/mol
same,molar entropy,"13 K, Crystal 2",4.55 ± 0.16 J/K/mol
same,molar entropy,"14 K, Crystal 2",5.45 ± 0.2 J/K/mol
same,molar entropy,"15 K, Crystal 2",6.422 ± 0.23 J/K/mol
same,molar entropy,"16 K, Crystal 2",7.473 ± 0.27 J/K/mol
same,molar entropy,"17 K, Crystal 2",8.609 ± 0.31 J/K/mol
same,molar entropy,"18 K, Crystal 2",9.826 ± 0.35 J/K/mol
same,molar entropy,"19 K, Crystal 1",11.08 ± 0.4 J/K/mol
same,molar entropy,"20 K, Crystal 1",12.28 ± 0.44 J/K/mol
same,molar entropy,"25 K, Crystal 1",16.82 ± 0.61 J/K/mol
same,molar entropy,"30 K, Crystal 1",20.58 ± 0.74 J/K/mol
same,molar entropy,"35 K, Crystal 1",24 ± 0.86 J/K/mol
same,molar entropy,"40 K, Crystal 1",27.36 ± 0.98 J/K/mol
same,molar entropy,"45 K, Crystal 1",30.72 ± 1.1 J/K/mol
same,molar entropy,"50 K, Crystal 1",34.14 ± 1.2 J/K/mol
same,molar entropy,"55 K, Crystal 1",37.63 ± 1.4 J/K/mol
same,molar entropy,"60 K, Crystal 1",41.21 ± 1.5 J/K/mol
same,molar entropy,"65 K, Crystal 1",44.87 ± 1.6 J/K/mol
same,molar entropy,"70 K, Crystal 1",48.62 ± 1.6 J/K/mol
same,molar entropy,"75 K, Crystal 1",52.44 ± 1.7 J/K/mol
same,molar entropy,"80 K, Crystal 1",56.32 ± 1.9 J/K/mol
same,molar entropy,"85 K, Crystal 1",60.25 ± 2 J/K/mol
same,molar entropy,"90 K, Crystal 1",64.23 ± 2.1 J/K/mol
same,molar entropy,"95 K, Crystal 1",68.25 ± 2.3 J/K/mol
same,molar entropy,"100 K, Crystal 1",72.3 ± 2.4 J/K/mol
same,molar entropy,"110 K, Crystal 1",80.43 ± 2.7 J/K/mol
same,molar entropy,"120 K, Crystal 1",88.54 ± 2.9 J/K/mol
same,molar entropy,"130 K, Crystal 1",96.61 ± 3.2 J/K/mol
same,molar entropy,"140 K, Crystal 1",104.61 ± 3.5 J/K/mol
same,molar entropy,"150 K, Crystal 1",112.55 ± 3.7 J/K/mol
same,molar entropy,"160 K, Crystal 1",120.42 ± 4 J/K/mol
same,molar entropy,"170 K, Crystal 1",128.21 ± 4.2 J/K/mol
same,molar entropy,"180 K, Crystal 1",135.93 ± 4.5 J/K/mol
same,molar entropy,"190 K, Crystal 1",143.57 ± 4.7 J/K/mol
same,molar entropy,"200 K, Crystal 1",151.13 ± 5 J/K/mol
same,molar entropy,"210 K, Crystal 1",158.6 ± 5.2 J/K/mol
same,molar entropy,"220 K, Crystal 1",165.99 ± 5.5 J/K/mol
same,molar entropy,"230 K, Crystal 1",173.3 ± 5.7 J/K/mol
same,molar entropy,"240 K, Crystal 1",180.51 ± 6 J/K/mol
same,molar entropy,"250 K, Crystal 1",187.62 ± 6.2 J/K/mol
same,molar entropy,"260 K, Crystal 1",194.64 ± 6.4 J/K/mol
same,molar entropy,"270 K, Crystal 1",201.56 ± 6.7 J/K/mol
same,molar entropy,"273.15 K, Crystal 1",203.72 ± 6.7 J/K/mol
same,molar entropy,"280 K, Crystal 1",208.38 ± 6.9 J/K/mol
same,molar entropy,"290 K, Crystal 1",215.1 ± 7.1 J/K/mol
same,molar entropy,"298.15 K, Crystal 1",220.5 ± 7.3 J/K/mol
same,molar entropy,"300 K, Crystal 1",221.72 ± 7.3 J/K/mol
same,Triple point temperature,Crystal 2,18.96 ± 0.2 K
